In brackets after ≈: the same amount, converted by molar mass.
What was measured:
Type in all cases: functional
Streptococcus pneumoniae [1] = assay: Antibacterial activity against Mef(A) efflux pump containing Streptococcus pneumoniae OC4438
Streptococcus pneumoniae [2] = assay: Antibacterial activity against Streptococcus pneumoniae OC9132
Haemophilus influenzae = assay: Antibacterial activity against Haemophilus influenzae OC4882
Staphylococcus aureus = assay: Antibacterial activity against Staphylococcus aureus OC4172
Streptococcus pneumoniae [3] = assay: Antibacterial activity against erm(B) ribosomal methylase gene containing Streptococcus pneumoniae OC4051

Row | SMILES | MIC (Streptococcus pneumoniae [1]) [µg/mL] | MIC (Streptococcus pneumoniae [2]) [µg/mL] | MIC (Haemophilus influenzae) [µg/mL] | MIC (Staphylococcus aureus) [µg/mL] | MIC (Streptococcus pneumoniae [3]) [µg/mL]
1 | CC[C@H]1OC(=O)[C@H](C)[C@@H](OC(=O)C(C)C)[C@H](C)[C@@H](O[C@@H]2O[C@H](C)C[C@H](N(C)C)[C@H]2O)[C@](C)(OC(=O)NC/C=C/c2ccc(-c3cccnn3)cc2)C[C@@H](C)C(=O)[C@H](C)[C@H]2NC(=O)O[C@@]21C | 0.06 (≈ 0.0661 µM) | 0.06 (≈ 0.0661 µM) | 2 (≈ 2.2 µM) | 0.5 (≈ 0.551 µM) | 0.12 (≈ 0.132 µM)
2 | CC[C@H]1OC(=O)[C@H](C)[C@@H](OC(=O)N(CC)CC)[C@H](C)[C@@H](O[C@@H]2O[C@H](C)C[C@H](N(C)C)[C@H]2O)[C@](C)(OC(=O)NC/C=C/c2cnc3ccccc3c2)C[C@@H](C)C(=O)[C@H](C)[C@H]2NC(=O)O[C@@]21C | 0.06 (≈ 0.0659 µM) | 0.06 (≈ 0.0659 µM) | 4 (≈ 4.4 µM) | 0.5 (≈ 0.549 µM) | 0.12 (≈ 0.132 µM)
3 | CC[C@H]1OC(=O)[C@H](C)[C@@H](OC(=O)N(CC)CC)[C@H](C)[C@@H](O[C@@H]2O[C@H](C)C[C@H](N(C)C)[C@H]2O)[C@](C)(OC(=O)NC/C=C/c2ccc(-c3cccnn3)cc2)C[C@@H](C)C(=O)[C@H](C)[C@H]2NC(=O)O[C@@]21C | 0.12 (≈ 0.128 µM) | 0.06 (≈ 0.064 µM) | 4 (≈ 4.27 µM) | 0.5 (≈ 0.534 µM) | 0.25 (≈ 0.267 µM)
4 | CC[C@H]1OC(=O)[C@H](C)[C@@H](OC(=O)N(CC)CC)[C@H](C)[C@@H](O[C@@H]2O[C@H](C)C[C@H](N(C)C)[C@H]2O)[C@](C)(OC(=O)NC/C=C/c2ccc(-n3cccn3)cc2)C[C@@H](C)C(=O)[C@H](C)[C@H]2NC(=O)O[C@@]21C | 0.12 (≈ 0.13 µM) | 0.12 (≈ 0.13 µM) | 4 (≈ 4.32 µM) | 1 (≈ 1.08 µM) | 0.5 (≈ 0.54 µM)
5 | CC[C@H]1OC(=O)[C@H](C)[C@@H](OC(=O)C(C)C)[C@H](C)[C@@H](O[C@@H]2O[C@H](C)C[C@H](N(C)C)[C@H]2O)[C@](C)(OC(=O)NC/C=C/c2cnc3ccccc3c2)C[C@@H](C)C(=O)[C@H](C)[C@H]2NC(=O)O[C@@]21C | 0.03 (≈ 0.034 µM) | 0.03 (≈ 0.034 µM) | 4 (≈ 4.54 µM) | 0.25 (≈ 0.284 µM) | 0.06 (≈ 0.0681 µM)
6 | CC[C@H]1OC(=O)[C@H](C)[C@@H](OC(=O)CC2CC2)[C@H](C)[C@@H](O[C@@H]2O[C@H](C)C[C@H](N(C)C)[C@H]2O)[C@](C)(OC(=O)NC/C=C/c2ccc(-c3ncccn3)cc2)C[C@@H](C)C(=O)[C@H](C)[C@H]2NC(=O)O[C@@]21C | 0.12 (≈ 0.13 µM) | 0.06 (≈ 0.0652 µM) | 16 (≈ 17.4 µM) | 1 (≈ 1.09 µM) | 0.12 (≈ 0.13 µM)
7 | CC[C@H]1OC(=O)[C@H](C)[C@@H](OC(=O)N2CCCC2)[C@H](C)[C@@H](O[C@@H]2O[C@H](C)C[C@H](N(C)C)[C@H]2O)[C@](C)(OC(=O)NC/C=C/c2ccc(-c3ncccn3)cc2)C[C@@H](C)C(=O)[C@H](C)[C@H]2NC(=O)O[C@@]21C | 0.12 (≈ 0.128 µM) | 0.06 (≈ 0.0642 µM) | 16 (≈ 17.1 µM) | 0.5 (≈ 0.535 µM) | 0.25 (≈ 0.267 µM)
8 | CC[C@H]1OC(=O)[C@H](C)[C@@H](OC(=O)Cc2ccccn2)[C@H](C)[C@@H](O[C@@H]2O[C@H](C)C[C@H](N(C)C)[C@H]2O)[C@](C)(OC(=O)NC/C=C/c2ccc(-c3ncccn3)cc2)C[C@@H](C)C(=O)[C@H](C)[C@H]2NC(=O)O[C@@]21C | 0.12 (≈ 0.125 µM) | 0.03 (≈ 0.0313 µM) | 4 (≈ 4.18 µM) | 0.25 (≈ 0.261 µM) | 0.12 (≈ 0.125 µM)
9 | CC[C@H]1OC(=O)[C@H](C)[C@@H](OC(=O)N(CC)Cc2cccnc2)[C@H](C)[C@@H](O[C@@H]2O[C@H](C)C[C@H](N(C)C)[C@H]2O)[C@](C)(OC(=O)NC/C=C/c2ccc(-c3ncccn3)cc2)C[C@@H](C)C(=O)[C@H](C)[C@H]2NC(=O)O[C@@]21C | 0.12 (≈ 0.12 µM) | 0.06 (≈ 0.06 µM) | 16 (≈ 16 µM) | 0.5 (≈ 0.5 µM) | 0.25 (≈ 0.25 µM)
10 | CC[C@H]1OC(=O)[C@H](C)[C@@H](OC(=O)Cc2cccnc2)[C@H](C)[C@@H](O[C@@H]2O[C@H](C)C[C@H](N(C)C)[C@H]2O)[C@](C)(OC(=O)NC/C=C/c2ccc(-c3ncccn3)cc2)C[C@@H](C)C(=O)[C@H](C)[C@H]2NC(=O)O[C@@]21C | 0.06 (≈ 0.0627 µM) | 0.03 (≈ 0.0313 µM) | 4 (≈ 4.18 µM) | 0.12 (≈ 0.125 µM) | 0.12 (≈ 0.125 µM)
11 | CC[C@H]1OC(=O)[C@H](C)[C@@H](OC(=O)Nc2ccc(F)cc2)[C@H](C)[C@@H](O[C@@H]2O[C@H](C)C[C@H](N(C)C)[C@H]2O)[C@](C)(OC(=O)NC/C=C/c2ccc(-c3ncccn3)cc2)C[C@@H](C)C(=O)[C@H](C)[C@H]2NC(=O)O[C@@]21C | 0.25 (≈ 0.256 µM) | 0.12 (≈ 0.123 µM) | 16 (≈ 16.4 µM) | 1 (≈ 1.03 µM) | 2 (≈ 2.05 µM)
12 | CC[C@H]1OC(=O)[C@H](C)[C@@H](OC(C)=O)[C@H](C)[C@@H](O[C@@H]2O[C@H](C)C[C@H](N(C)C)[C@H]2O)[C@](C)(OC(=O)NC/C=C/c2ccc(-c3ncccn3)cc2)C[C@@H](C)C(=O)[C@H](C)[C@H]2NC(=O)O[C@@]21C | 0.12 (≈ 0.136 µM) | 0.03 (≈ 0.0341 µM) | 16 (≈ 18.2 µM) | 1 (≈ 1.14 µM) | 0.5 (≈ 0.568 µM)
13 | CC[C@H]1OC(=O)[C@H](C)[C@@H](OC(=O)C(C)C)[C@H](C)[C@@H](O[C@@H]2O[C@H](C)C[C@H](N(C)C)[C@H]2O)[C@](C)(OC(=O)NC/C=C/c2ccc(-c3ncccn3)cc2)C[C@@H](C)C(=O)[C@H](C)[C@H]2NC(=O)O[C@@]21C | 0.12 (≈ 0.132 µM) | 0.06 (≈ 0.0661 µM) | 8 (≈ 8.81 µM) | 0.5 (≈ 0.551 µM) | 0.12 (≈ 0.132 µM)
14 | CCC(=O)O[C@H]1[C@H](C)[C@@H](O[C@@H]2O[C@H](C)C[C@H](N(C)C)[C@H]2O)[C@](C)(OC(=O)NC/C=C/c2ccc(-c3ncccn3)cc2)C[C@@H](C)C(=O)[C@H](C)[C@H]2NC(=O)O[C@]2(C)[C@@H](CC)OC(=O)[C@@H]1C | 0.12 (≈ 0.134 µM) | 0.03 (≈ 0.0336 µM) | 8 (≈ 8.95 µM) | 0.5 (≈ 0.559 µM) | 0.25 (≈ 0.28 µM)
15 | CC[C@H]1OC(=O)[C@H](C)[C@@H](OC(=O)Cc2cccnc2)[C@H](C)[C@@H](O[C@@H]2O[C@H](C)C[C@H](N(C)C)[C@H]2O)[C@](C)(OC(=O)NC/C=C/c2cnc3ccccc3c2)C[C@@H](C)C(=O)[C@H](C)[C@H]2NC(=O)O[C@@]21C | 0.06 (≈ 0.0645 µM) | 0.06 (≈ 0.0645 µM) | 4 (≈ 4.3 µM) | 0.5 (≈ 0.538 µM) | 0.12 (≈ 0.129 µM)
16 | CC[C@H]1OC(=O)[C@H](C)[C@@H](OC(=O)C(C)C)[C@H](C)[C@@H](O[C@@H]2O[C@H](C)C[C@H](N(C)C)[C@H]2O)[C@](C)(OC(=O)NC/C=C/C=C/c2cccnc2)C[C@@H](C)C(=O)[C@H](C)[C@H]2NC(=O)O[C@@]21C | 0.12 (≈ 0.14 µM) | 0.06 (≈ 0.07 µM) | 4 (≈ 4.67 µM) | 0.5 (≈ 0.583 µM) | 0.25 (≈ 0.292 µM)
17 | CC[C@H]1OC(=O)[C@H](C)[C@@H](OC(=O)N(C)c2ccncc2)[C@H](C)[C@@H](O[C@@H]2O[C@H](C)C[C@H](N(C)C)[C@H]2O)[C@](C)(OC(=O)NC/C=C/c2ccc(-c3ncccn3)cc2)C[C@@H](C)C(=O)[C@H](C)[C@H]2NC(=O)O[C@@]21C | 0.25 (≈ 0.257 µM) | 0.06 (≈ 0.0617 µM) | 8 (≈ 8.23 µM) | 1 (≈ 1.03 µM) | 0.25 (≈ 0.257 µM)
18 | CC[C@H]1OC(=O)[C@H](C)C(=O)[C@H](C)[C@@H](O[C@@H]2O[C@H](C)C[C@H](N(C)C)[C@H]2O)[C@](C)(OC(=O)NC/C=C/c2ccc(-c3ncccn3)cc2)C[C@@H](C)C(=O)[C@H](C)[C@H]2NC(=O)O[C@@]21C | 0.25 (≈ 0.299 µM) | 0.03 (≈ 0.0359 µM) | 4 (≈ 4.78 µM) | 0.12 (≈ 0.144 µM) | 0.06 (≈ 0.0718 µM)
19 | CC[C@H]1OC(=O)[C@H](C)[C@@H](OC(=O)c2cccnc2)[C@H](C)[C@@H](O[C@@H]2O[C@H](C)C[C@H](N(C)C)[C@H]2O)[C@](C)(OC(=O)NC/C=C/c2ccc(-c3ncccn3)cc2)C[C@@H](C)C(=O)[C@H](C)[C@H]2NC(=O)O[C@@]21C | 0.25 (≈ 0.265 µM) | 0.06 (≈ 0.0636 µM) | 16 (≈ 17 µM) | 0.5 (≈ 0.53 µM) | 4 (≈ 4.24 µM)
20 | CC[C@H]1OC(=O)[C@H](C)[C@@H](OC(=O)N(C)Cc2cccnc2)[C@H](C)[C@@H](O[C@@H]2O[C@H](C)C[C@H](N(C)C)[C@H]2O)[C@](C)(OC(=O)NC/C=C/c2ccc(-c3ncccn3)cc2)C[C@@H](C)C(=O)[C@H](C)[C@H]2NC(=O)O[C@@]21C | 0.06 (≈ 0.0608 µM) | 0.03 (≈ 0.0304 µM) | 4 (≈ 4.06 µM) | 0.25 (≈ 0.254 µM) | 0.5 (≈ 0.507 µM)
21 | CC[C@H]1OC(=O)[C@H](C)[C@@H](OC(=O)Cc2cccnc2)[C@H](C)[C@@H](O[C@@H]2O[C@H](C)C[C@H](N(C)C)[C@H]2O)[C@](C)(OC(=O)NC/C=C/C=C/c2cccnc2)C[C@@H](C)C(=O)[C@H](C)[C@H]2NC(=O)O[C@@]21C | 0.12 (≈ 0.132 µM) | 0.03 (≈ 0.0331 µM) | 2 (≈ 2.21 µM) | 0.5 (≈ 0.552 µM) | 0.12 (≈ 0.132 µM)
22 | CC[C@H]1OC(=O)[C@H](C)[C@@H](OC(=O)CCc2cccnc2)[C@H](C)[C@@H](O[C@@H]2O[C@H](C)C[C@H](N(C)C)[C@H]2O)[C@](C)(OC(=O)NC/C=C/c2ccc(-c3ncccn3)cc2)C[C@@H](C)C(=O)[C@H](C)[C@H]2NC(=O)O[C@@]21C | 0.06 (≈ 0.0618 µM) | 0.03 (≈ 0.0309 µM) | 8 (≈ 8.24 µM) | 0.25 (≈ 0.257 µM) | 2 (≈ 2.06 µM)
23 | CC[C@H]1OC(=O)[C@H](C)[C@@H](OC(=O)Cc2ccncc2)[C@H](C)[C@@H](O[C@@H]2O[C@H](C)C[C@H](N(C)C)[C@H]2O)[C@](C)(OC(=O)NC/C=C/c2ccc(-c3ncccn3)cc2)C[C@@H](C)C(=O)[C@H](C)[C@H]2NC(=O)O[C@@]21C | 0.12 (≈ 0.125 µM) | 0.03 (≈ 0.0313 µM) | 4 (≈ 4.18 µM) | 0.25 (≈ 0.261 µM) | 0.25 (≈ 0.261 µM)
24 | CC[C@H]1OC(=O)[C@H](C)[C@@H](OC(=O)Cc2cccnc2)[C@H](C)[C@@H](O[C@@H]2O[C@H](C)C[C@H](N(C)C)[C@H]2O)[C@](C)(OC(=O)NC/C=C/c2cnc(C3CC3)nc2)C[C@@H](C)C(=O)[C@H](C)[C@H]2NC(=O)O[C@@]21C | 0.25 (≈ 0.271 µM) | 0.06 (≈ 0.0651 µM) | 2 (≈ 2.17 µM) | 0.5 (≈ 0.543 µM) | 0.25 (≈ 0.271 µM)
25 | CC[C@H]1OC(=O)[C@H](C)[C@@H](OC(=O)Nc2ccc(OC)cc2)[C@H](C)[C@@H](O[C@@H]2O[C@H](C)C[C@H](N(C)C)[C@H]2O)[C@](C)(OC(=O)NC/C=C/c2ccc(-c3ncccn3)cc2)C[C@@H](C)C(=O)[C@H](C)[C@H]2NC(=O)O[C@@]21C | 0.25 (≈ 0.253 µM) | 0.12 (≈ 0.122 µM) | 16 (≈ 16.2 µM) | 1 (≈ 1.01 µM) | 4 (≈ 4.05 µM)

From ChEMBL document CHEMBL1138130, “Synthesis and antibacterial activity of 3-O-acyl-6-O-carbamoyl erythromycin A derivatives” (2006)
